The test system of assay [1] is COLR-Ab isolates. The assay is described as follows: BD Phoenix100 automated antibiotic susceptibility testing. Further details: key to Susceptibility category: Resistant; Intermediate; Susceptible. Particulars: for MIC: Acinetobacter baumannii; for Susceptibility category: CLSI criteria. In kind it is cell-based, Acinetobacter baumannii. As to the method: Five COLR-Ab strains isolated from various clinical specimens were obtained between 2016 and 2017 from the Microbiology Department of the Central Laboratory of Akdeniz University Hospital, Antalya, Turkey. All isolates were isolated from tracheal samples obtained from patients hospitalized in the intensive care unit. The stock solutions of A. baumannii strains were cultivated in blood agar (Becton Dickinson, Franklin Lakes, NJ, USA) at 35 ± 2 °C for 18–24 h. Identification of the colonies was confirmed using Matrix-Assisted Laser Desorption/Ionization Time-of-Flight (MALDI-TOF) mass spectroscopy (Bruker Daltonics, Bremen, Germany). […] The automated system was evaluated according to the criteria of the CLSI. […] E. coli NCTC 13846 COL was used as a quality control strain in broth dilution method to verify the MIC values. The isolates were stored at −80 °C until use and sub-cultured on blood agar for in vitro testing.

Another assay concerns A. baumannii isolates. Particulars: A. baumannii isolates, combination with COL; cited from earlier work.
The test system of assay [2] is COLR-Ab isolates. Nature of the assay: Colistin broth disk elution method. The class given is cell-based, Acinetobacter baumannii. Set-up: key to Susceptibility category: Resistant; Intermediate; Susceptible. As to the method: (§1) Five COLR-Ab strains isolated from various clinical specimens were obtained between 2016 and 2017 from the Microbiology Department of the Central Laboratory of Akdeniz University Hospital, Antalya, Turkey. All isolates were isolated from tracheal samples obtained from patients hospitalized in the intensive care unit. The stock solutions of A. baumannii strains were cultivated in blood agar (Becton Dickinson, Franklin Lakes, NJ, USA) at 35 ± 2 °C for 18–24 h. Identification of the colonies was confirmed using Matrix-Assisted Laser Desorption/Ionization Time-of-Flight (MALDI-TOF) mass spectroscopy (Bruker Daltonics, Bremen, Germany). […] The automated system was evaluated according to the criteria of the CLSI. The colistin broth disk elution method was used to test COL sensitivity, and all five isolates selected for the study were resistant to COL. E. coli NCTC 13846 COL was used as a quality control strain in broth dilution method to verify the MIC values. The isolates were stored at −80 °C until use and sub-cultured on blood agar for in vitro testing.

The test system of assay [3] is biofilm formation of COLR-Ab isolates. Nature of the assay: Antibiofilm activity, microtiter plate-based crystal violet technique. Particulars: all COL doses except 1 μg/mL for COLR-Ab4; COLR-Ab1, 3, 4, 5. The class given is cell-based, Acinetobacter baumannii. The procedure:
Following the incubation period, the microtiter plates were gently washed three times with PBS. Subsequently, 200 µL of methanol (99%) was added to each well and left for 15 min. The methanol was then removed from the wells and the plate was left to dry for approximately 30 min, thus completing the fixation process. Then, 200 µL of 0.1% CV solution was added to each well and incubated for 20 min at room temperature. The plates were washed three times with PBS in order to remove the excess stain, and then 150 μL of 95% ethanol was added to the wells and incubated for 20 min. The optical density of the CV-stained biofilm was measured at a wavelength of 575 nm using a Thermo Labsystem Multiscan Spectrum microtiter plate reader (Thermolabsystem, Chantilly, VA, USA). Each experiment was conducted in triplicate.
In order to evaluate the antibiofilm activity of COL, p-CA, FA, and p-MCA, a 96-well microtiter plate-based CV test was carried out, with minor modifications to the methods previously described by Kırmusaoglu (2019) and Haney et al. (2021). Briefly, bacteria were inoculated into MHB medium containing 0.2% glucose and incubated at 37 °C for 16–20 h. The bacterial suspension, adjusted to 0.5 McFarland using the same medium, was prepared to a final concentration of 5 × 10^5 CFU/mL and inoculated into 96-well flat-bottom microtitre plates. […] Wells containing only medium were used as negative controls (MHB), and wells containing only medium and bacteria were used as growth controls. The plates were then incubated overnight at 35 ± 2 °C in a normal atmosphere. Following incubation, CV staining procedures were carried out in a similar manner to Section 4.4.
The antibiofilm index was calculated using the following formula:% Biofilm Mass = (100 × Sample OD575/Growth Control OD575)

For assay [4], the system named is Escherichia coli NCTC 13846. The assay is described as follows: Broth microdilution MIC, quality control strain. Particulars: E. coli NCTC 13846 quality control strain. In kind it is cell-based. As to the method:
as §1
The broth microdilution method, as recommended by the CLSI, was used to determine the MIC values of COL, p-CA, FA, and p-MCA [46]. […] The MIC values were calculated by comparing the growth densities in the antibiotic-containing wells to those in the control wells used in each test set. […]
(Broth dilution looks for growth in wells or tubes with falling amounts of substance.)

For assay [5], the system named is COLR-Ab isolates. Nature of the assay: Broth microdilution MIC determination (CLSI). In kind it is cell-based, Acinetobacter baumannii. As to the method: The broth microdilution method, as recommended by the CLSI, was used to determine the MIC values of COL, p-CA, FA, and p-MCA [46]. The serial two-fold dilutions of antimicrobial agents were prepared using 96-well microplates with cation-adjusted Mueller-Hinton Broth (MHB) (CAMHB, Merck KGaA, Darmstadt, Germany). Firstly, an initial concentration of 8192 µg/mL was chosen to determine the MIC values of all compounds against COLR-Ab isolates. […] The bacterial suspension was adjusted to the 0.5 McFarland standard and added to each well (final bacterial concentration: 5 × 10^5 colony forming units [CFU]/mL). Additionally, the microdilution plates included controls for bacterial growth (CAMHB + bacteria) and medium sterility (CAMHB). Microdilution plates were incubated at 35 ± 2 °C for 18–24 h. The MIC values were calculated by comparing the growth densities in the antibiotic-containing wells to those in the control wells used in each test set. Each experiment was conducted in triplicate.

The mark [6] stands for this setting: COLR-Ab1, BD Phoenix 100 system.
[7] abbreviates: COLR-Ab2, BD Phoenix 100 system.
Setting [8] is: COLR-Ab3, BD Phoenix 100 system.
Setting [9] is: COLR-Ab4, BD Phoenix 100 system.
The mark [10] stands for this setting: COLR-Ab5, BD Phoenix 100 system.
Setting [11] is: COLR-Ab1, colistin broth disk elution.
[12] abbreviates: COLR-Ab2, colistin broth disk elution.
[13] abbreviates: COLR-Ab3, colistin broth disk elution.
Setting [14] is: COLR-Ab4, colistin broth disk elution.
Where [15] appears, read: COLR-Ab5, colistin broth disk elution.

Values after ≈ are worked out from the molar mass of the structure shown. Where only a bound is given, the exact number is not on record here.

The MIC is the least concentration at which growth counts as inhibited.

For the compound `C[C@@H](O)[C@H]1C(=O)N2C(C(=O)O)=C(S[C@@H]3CN[C@H](C(=O)N(C)C)C3)[C@H](C)[C@H]12` [MEM, Meropenem], the MIC is not above 0.125 mg/L against COLR-Ab isolates [1] (setting [6]); more than 8 mg/L in the assay with COLR-Ab isolates [1] (setting [7]); more than 8 mg/L in the assay with COLR-Ab isolates [1] (setting [8]); more than 8 mg/L in the assay with COLR-Ab isolates [1] (setting [9]); more than 8 mg/L against COLR-Ab isolates [1] (setting [10]). In addition, the Susceptibility category result in the assay on COLR-Ab isolates [1] (setting [6]) is “S”; with COLR-Ab isolates [1] (setting [7]), “R”; in the assay with COLR-Ab isolates [1] (setting [8]), “R”; in the assay with COLR-Ab isolates [1] (setting [9]), “R”; in the assay on COLR-Ab isolates [1] (setting [10]) it was “R”.

Take `O=C(O)c1ccc(O)c(O)c1` [protocatechuic acid]: the “Combination effect with COL in words” value in the assay with A. baumannii isolates is “Synergistic activity”.

For `O=C(O)/C=C/c1ccc(O)c(O)c1` [caffeic acid], the “Combination effect with COL in words” value in the assay on A. baumannii isolates is recorded as “Synergistic activity”.

For `NCC[C@H](O)C(=O)N[C@@H]1C[C@H](N)[C@@H](O[C@H]2O[C@H](CN)[C@@H](O)[C@H](O)[C@H]2O)[C@H](O)[C@H]1O[C@H]1O[C@H](CO)[C@@H](O)[C@H](N)[C@H]1O` [AMK, Amikacin], the MIC against COLR-Ab isolates [1] (setting [6]) was not above 4 mg/L; with COLR-Ab isolates [1] (setting [7]), more than 16 mg/L; in the assay on COLR-Ab isolates [1] (setting [8]) it was more than 16 mg/L; in the assay on COLR-Ab isolates [1] (setting [9]), more than 16 mg/L; in the assay with COLR-Ab isolates [1] (setting [10]), more than 16 mg/L. Moreover, the Susceptibility category entry in the assay on COLR-Ab isolates [1] (setting [6]) is given as “S”; in the assay on COLR-Ab isolates [1] (setting [7]) it was “R”; with COLR-Ab isolates [1] (setting [8]), “R”; in the assay on COLR-Ab isolates [1] (setting [9]), “R”; with COLR-Ab isolates [1] (setting [10]), “R”.

With `O=C(O)c1cc(O)c(O)c(O)c1` [gallic acid], in the assay with A. baumannii isolates, the “Combination effect with COL in words” value is reported as “Synergistic activity”.

Turning to `CCN[C@@H]1C[C@H](N)[C@@H](O[C@H]2OC(CN)=CC[C@H]2N)[C@H](O)[C@H]1O[C@H]1OC[C@](C)(O)[C@H](NC)[C@H]1O` [NET, Netilmicin], the MIC in the assay on COLR-Ab isolates [1] (setting [6]) was 1 mg/L (≈ 2.1 µM); against COLR-Ab isolates [1] (setting [7]), more than 4 mg/L; in the assay on COLR-Ab isolates [1] (setting [8]), more than 4 mg/L; with COLR-Ab isolates [1] (setting [9]), more than 4 mg/L; against COLR-Ab isolates [1] (setting [10]), more than 4 mg/L. Further, the Susceptibility category entry in the assay with COLR-Ab isolates [1] (setting [6]) is “S”; with COLR-Ab isolates [1] (setting [7]), “R”; with COLR-Ab isolates [1] (setting [8]) it was “R”; with COLR-Ab isolates [1] (setting [9]), “R”; in the assay on COLR-Ab isolates [1] (setting [10]), “R”.

Take `C[C@@H](O)[C@H]1C(=O)N2C(C(=O)O)=C(SCCN=CN)C[C@H]12` [IPM, Imipenem]: the MIC in the assay with COLR-Ab isolates [1] (setting [6]) is not above 0.25 mg/L; in the assay with COLR-Ab isolates [1] (setting [7]), more than 8 mg/L; in the assay with COLR-Ab isolates [1] (setting [8]), 4 mg/L (≈ 13.4 µM); against COLR-Ab isolates [1] (setting [9]), more than 8 mg/L; in the assay with COLR-Ab isolates [1] (setting [10]) it was more than 8 mg/L. Also, the Susceptibility category entry is recorded as “S” with COLR-Ab isolates [1] (setting [6]); “R” in the assay with COLR-Ab isolates [1] (setting [7]); “I” in the assay on COLR-Ab isolates [1] (setting [8]); “R” with COLR-Ab isolates [1] (setting [9]); “R” in the assay on COLR-Ab isolates [1] (setting [10]).

colistin: the MIC was more than 4 mg/L against COLR-Ab isolates [2] (setting [11]); more than 4 mg/L against COLR-Ab isolates [2] (setting [12]); more than 4 mg/L against COLR-Ab isolates [2] (setting [13]); more than 4 mg/L in the assay with COLR-Ab isolates [2] (setting [14]); more than 4 mg/L with COLR-Ab isolates [2] (setting [15]); 4 mg/L in assay [4]. Besides, the MIC came to 32 mg/L against COLR-Ab isolates [5] (COLR-Ab1); 64 mg/L in the assay with COLR-Ab isolates [5] (COLR-Ab2); 64 mg/L against COLR-Ab isolates [5] (COLR-Ab3); 128 mg/L with COLR-Ab isolates [5] (COLR-Ab4); 64 mg/L in the assay on COLR-Ab isolates [5] (COLR-Ab5). Further, the Susceptibility category entry with COLR-Ab isolates [2] (setting [11]), in the assay with COLR-Ab isolates [2] (setting [12]), in the assay with COLR-Ab isolates [2] (setting [13]), with COLR-Ab isolates [2] (setting [14]) and with COLR-Ab isolates [2] (setting [15]) was “R” each time. In addition, the “Inhibition of biofilm formation” value in assay [3] was 19.7–75.2%.

`CNC(C)C1CCC(N)C(OC2C(N)CC(N)C(OC3OCC(C)(O)C(NC)C3O)C2O)O1` (stereo not shown) [GEN, Gentamicin]: the MIC was not above 1 mg/L against COLR-Ab isolates [1] (setting [6]); more than 4 mg/L against COLR-Ab isolates [1] (setting [7]); more than 4 mg/L in the assay with COLR-Ab isolates [1] (setting [8]); more than 4 mg/L against COLR-Ab isolates [1] (setting [9]); more than 4 mg/L against COLR-Ab isolates [1] (setting [10]). Further, the Susceptibility category result is “S” with COLR-Ab isolates [1] (setting [6]); “R” with COLR-Ab isolates [1] (setting [7]); “R” in the assay on COLR-Ab isolates [1] (setting [8]); “R” in the assay with COLR-Ab isolates [1] (setting [9]); “R” in the assay with COLR-Ab isolates [1] (setting [10]).

(Values after publication PMC11761228, “Cinnamic Acid Compounds (p-Coumaric, Ferulic, and p-Methoxycinnamic Acid) as Effective Antibacterial Agents Against Colistin-Resistant Acinetobacter baumannii” (Antibiotics, 2025).)
